What was measured:
Type in all cases: cell-based
3T3-L1 adipose cell [1] = assay: Oil red staining of 3T3-L1 adipose cell; conditions: 0.03, 0.06, 0.13, 0.25 mM, day 9
Method: Acorus essential oil inhibition effect on cell differentiation can be visualized under microscope by oil red staining. It is performed as follows. Dissolve 0.03 g of Oil red O in 10 ml of isopropylalcohol as stock solution. Mix 2.4 ml of stock solution and 1.6 ml of PBS and filter it before staining. Remove medium from cells, add appropriate amount of filtered staining solution for 15 minutes, wash cell three times with PBS for 5 minutes each, and then add 4% paraformaldehyde for 15 minutes to fix cells, repeat wash step by PBS. Add 0.1% Triton X-100 for 30 seconds, and repeat wash step by PBS. Add appropriate amount of hematoxylin for 30 seconds followed by one last wash step by PBS. Observe the image under a microscope and record the image.

3T3-L1 adipose cell [2] = assay: MTT assay, cell viability of 3T3-L1 adipose cell; conditions: 0.25 mM (maximal amount)
C/EBPα [3] = assay: C/EBPα mRNA expression by RT-PCR in 3T3-L1 cell; conditions: 3 days, GAPDH internal control
Method: (§1) RNA extraction: Remove 3T3-L1 cell medium directly from 10 cm petri dish, add 1 ml of Trizol reagent, and scrape off cells. Transfer cell and reagent mixture into a microcentrifuge tube. Add 200 μl chloroform in each tube and vortex for 15 seconds until it is clouded. Leave it on ice for 2-3 minutes at 4 C, spin it at 12000 rpm for 20 minutes. Transfer supernatant to another microcentrifuge tube, add equal amount of isopropylalcohol, mix and leave it on ice for 10 minutes. Spin it at 12000 rpm for 10 minutes at 4 C. After centrifugation, remove supernatant and save RNA pellet in the bottom. Add 75% cold ethanol, spin it at 7500 rpm for 10 minutes at 4 C. Remove ethanol after centrifugation and air dry the pellet until the edge is clear. Add appropriate amount of DEPC H2O to dissolve RNA pellet, and determine RNA concentration by OD260/OD280 nm with a spectrophotometer.
(§2) RT-PCR: Take 2 μg of RNA for reverse transcription reaction. Mix RNA, DEPC H2O and 0.25 μg random primer to make total volume of 12 μl. Keep it at 70 C for 10 minutes, and then leave it on ice. Add 4 μl of 5× first-strand buffer, 2 μl of 0.1 M dithiothreitol, 1 μl of 10 mM dNTP and 1 μl of SuperScript™ II reverse transcriptase 200 U/μl. Keep it at 42 C for 1.5 hours, and then heat it at 70 C for 15 minutes to stop reverse transcription. Take 1 μl of cDNA from reverse transcription, mix with 5 μl of 10×PCR buffer, 1 μl of 10 mM dNTP, 2 μl of primer, 40.5 μl of sterile water, and 0.5 μl of Taq DNA polymerase (1 U/μl) for PCR reaction. The SEQ ID NO: 1 to SEQ ID NO: 6 is listed from the top to bottom accordingly. PCR program is listed as follows: 95 C/5 min; 25˜30 cycles of 95 C/1 min, 55 C/1 min, 72 C/1 min; 72 C/10 min, and stop reaction at 4 C.
(§3) Because PPARγ and C/EBPα are early marker genes during adipose cell differentiation, these genes have been analyzed from cells harvested after 3 days of β-asarone addition. […]

C/EBPα [4] = assay: C/EBPα protein expression by western blot in 3T3-L1 cell; conditions: 3 days, α-tubulin internal control
Method: (§4) Western blot analysis: Prepare 12% SDS-PAGE as follows. Recipe of separating gel contains 2.5 ml of 1.5 M Tris-HCl pH 8.8, 100 μl of 10% SDS, 3 ml of acrylamide/bis (37.5:1; 40%), 4.35 ml RO water, 50 μl of 10% ammonium persulfate, and 5 μl of TEMED. Recipe of stacking gel contains 1.25 ml of 0.5 M Tris-HCl pH 6.8, 50 μl of 10% SDS, 0.065 ml of acrylamide/bis (37.5:1; 40%), 3.05 ml of RO water, 25 μl of APS and 5 μl of TEMED. Load same amount of protein in each well, and electrophoresis is performed under 100V for 2 hours. Prepare transfer buffer (10 mM CAPS-NaOH, 10% methanol, pH 11.0), and use methanol to rinse PVDF transfer membrane. After electrophoresis is complete, remove SDS-PAGE gel, cover the gel and PVDF membrane with transfer buffer rinsed 3 MM paper. Put it into transfer tank full of transfer buffer, electrophoresis under 500 mA for 1 hour. Take transfer membrane out, block it with 5% skim milk in TBST (20 mM Tris, 137 mM NaCl, 0.01% Tween-20), and wash it with TBST briefly. Add primary antibody for 2-hour reaction, wash membrane with TBST for three times, 15 minutes each. Add appropriate amount of secondary antibody for 1 hour, wash membrane with TBST for three times, 15 minutes each. In the end, evenly cover ECL on the transfer membrane, place membrane in the film cassette, and expose it to X-ray film. Develop the film for analysis.
(§5) Analyze cells of β-asarone supplement for 3 days by western analysis. The expression of PPARγ from cells treated with β-asarone at concentration of 0.03, 0.06, and 0.13 mM is 97%, 117%, and 111% relative to its normal differentiated control with no significant difference. When β-asarone reaches 0.25 mM, the expression of PPARγ reduces to 45% relative to its control (FIG. 12). In terms of another differentiation marker gene C/EBPα, the expression of C/EBPα treated with β-asarone at concentrations of 0.03 and 0.06 mM is 113% and 77% relative to its control with no statistical difference. However, when β-asarone reaches 0.13 mM and 0.25 mM, the expression of C/EBPα reduces to 43% and 33% relative to its control (FIG. 13).

PPARγ [5] = assay: PPARγ protein expression by western blot in 3T3-L1 cell; conditions: 3 days, α-tubulin internal control
Method: as §4, §5

PPARγ [6] = assay: PPARγ mRNA expression by RT-PCR in 3T3-L1 cell; conditions: 3 days, GAPDH internal control
Method: as §1, §2, §3

3T3-L1 adipose cell [7] = assay: 3T3-L1 adipose cell differentiation assay, triglyceride content per unit protein; conditions: day 9, control 0.1% DMSO
Method: In the present invention, 3T3-L1 fibroblast cell is purchased from Bioresource collection and research center. Medium for 3T3-L1 fibroblast cell culture contains 10% (v/v) FBS, Dulbecco's modified Eagle's high-glucose medium containing 1% (v/v) penicillin (10000 U/ml) and streptomycin (10 mg/ml). Cell culture is performed in 37 C, 10% CO2 incubators. Subculture is performed at 80-90% cell confluence. After cell reaches 100% confluence, differentiation solution is used for differentiation. The complete differentiation takes 9 days. Differentiation solution contains 0.5 mM IBMX, 10 μg/ml insulin, 0.5 μM dexamethasone in 10% FBS DMEM. Two or three days after 3T3-L1 fibroblast cell reaching 100% confluence (day 0), the original 10% FBS DMEM is removed and differentiation solution is added. Replace cell culture medium at day 3 and day 6 with 10% FBS DMEM containing 10 μg/ml insulin. Harvest cells at day 9 of differentiation for cell morphology observation (Juan, C. C.; Chang, C. L.; Lai, Y. H.; Ho, L. T., Endothelin-1 induces lipolysis in 3T3-L1 adipocytes. Am. J. Physiol. Endocrinol. Metab. 2005, 288, E1146-52).
Mature 3T3-L1 adipose cell stores energy in the form of triglyceride of cell's oil drop. In order to study if plant essential oil is able to inhibit lipid accumulation in 3T3-L1 pre-adipose cell, we use cellular accumulated triglyceride content as an indicator of adipose cell differentiation. The examination method is as follows. Remove 3T3-L1 cell culture medium, wash cell with PBS for three times. Add protein lysis buffer (50 mM Tris-HCl, 150 mM NaCl, 0.5% sodium deoxycholate, 1% NP-40, 0.1% SDS) containing 10-fold diluted protease inhibitor into each well. Transfer mixture of scraped cells and buffer into microcentrifuge tube. Take 5 μl of homogenized cell mixture and 250 μl of reagent for reaction. The reaction is complete at room temperature in 1 hour, and then detects OD550 nm. Use OD value to calculate triglyceride concentration from a Merck multi-system calibrator generated standard curve. Determine triglyceride and protein concentration in each well, and the division of these two values (mg TG/mg protein) represents triglyceride content per unit protein in the cell. […]
Dilute Acorus essential oil (density 1.10 g/ml) to 25, 62.5, and 125 mg/ml with DMSO. Until cell growth reaches post confluence (day 0), diluted Acorus essential oil solution is added into differentiation solution in 1:1000 dilution into cell (final concentration is 25, 62.5, and 125 μg/ml). While replacing growth medium containing insulin at day 3 and day 6, replenish each concentration of Acorus essential oil in culture medium as well as the ones adding 0.1% DMSO as controls. The analysis at day 9 discovered that 25 μg/ml Acorus essential oil reduces triglyceride content per cell unit protein to 77% relative to its control. Acorus essential oil at 62.5 and 125 μg/ml essential oil reduces it to 55% and 20% relative to its control (FIG. 2a).
Ten ml of Acorus essential oil dissolved in hexane (5 ml essential oil and 5 ml hexane) is loaded into prepacked silica gel glass column and eluted by hydrophobicity (Table 2). Essential oil can be separated into 5 portions based on each component's hydrophobicity. Remove elution solvent by lypholizer, dissolve each component in 2 ml DMSO or methanol, and store it in glass vial. 3T3-L1 is used as a cell model, we add various fractions in DMSO or methanol at concentration of 50 μg/ml into cell differentiation medium and growth medium. At day 9 of complete differentiation, analyze triglyceride content per cell unit protein. […] Therefore, the second fraction has been chosen for further analysis.
After identifying the second fraction of Acorus essential oil as α-asarone and β-asarone, we further examine the effect of these two compounds on adipose cell differentiation inhibition. We dissolve α-asarone and β-asarone in DMSO to make concentration of 0.015, 0.03, 0.06, 0.13, and 0.25 M solution. […]

Row | Structure (SMILES) | oil red staining, red oil covered area (3T3-L1 adipose cell [1]) | cell viability rate relative to normal differentiated control (3T3-L1 adipose cell [2]) [%] | C/EBPα mRNA expression relative to normal differentiated control (C/EBPα [3]; 0.03 mM) [%] | C/EBPα mRNA expression relative to normal differentiated control (C/EBPα [3]; 0.06 mM) [%] | C/EBPα mRNA expression relative to normal differentiated control (C/EBPα [3]; 0.13 mM) [%] | C/EBPα protein expression relative to its control (C/EBPα [4]; 0.03 mM) [%] | C/EBPα protein expression relative to its control (C/EBPα [4]; 0.06 mM) [%] | C/EBPα protein expression relative to its control (C/EBPα [4]; 0.25 mM) [%] | PPARγ protein expression relative to normal differentiated control (PPARγ [5]; 0.03 mM) [%] | PPARγ protein expression relative to normal differentiated control (PPARγ [5]; 0.06 mM) [%] | PPARγ protein expression relative to normal differentiated control (PPARγ [5]; 0.13 mM) [%] | PPARγ mRNA expression relative to normal differentiated control (PPARγ [6]; 0.03 mM) [%] | PPARγ mRNA expression relative to normal differentiated control (PPARγ [6]; 0.06 mM) [%] | PPARγ mRNA expression relative to normal differentiated control (PPARγ [6]; 0.13 mM) [%] | triglyceride content relative to normal differentiation control (3T3-L1 adipose cell [7]; 0.015 mM) [%] | triglyceride content relative to normal differentiation control (3T3-L1 adipose cell [7]; 0.03 mM) [%] | triglyceride content relative to normal differentiation control (3T3-L1 adipose cell [7]; 0.06 mM) [%] | triglyceride content relative to normal differentiation control (3T3-L1 adipose cell [7]; 0.13 mM) [%] | triglyceride content relative to normal differentiation control (3T3-L1 adipose cell [7]; 0.25 mM) [%]
1 | C/C=C\c1cc(OC)c(OC)cc1OC (single isomer, unassigned) [β-asarone] | red oil covered area is decreasing | 79 | 99 | 94 | 96 | 113 | 77 | 33 | 97 | 117 | 111 | 96 | 94 | 90 | 101 | 90 | 91 | 66 | 47
2 | C/C=C/c1cc(OC)c(OC)cc1OC (single isomer, unassigned) [α-asarone, reference compound] |  | 78 |  |  |  |  |  |  |  |  |  |  |  |  | 107 | 106 | 99 | 104 | 105
